# Test results reported in ChEMBL document CHEMBL5728983, “Macrocyclic derivative of pyrazol[3,4-d]pyrimidin-3-one, pharmaceutical composition and use thereof” (2022).
# pIC50: −log10 of the molar value.
# Target: Wee1-like protein kinase (Homo sapiens, UniProt P30291)
# Test: Enzymatic Activity of Wee1: In the present disclosure, Wee1 enzyme catalysis assay was carried out using the ATP-Glo Max kinase luminescence detection kit (Promega). Kinase activity was assessed by quantitative detection of the amount of ATP retained in the solution following the kinase reaction. The luminescent signal in the assay is proportional to the amount of ATP and inversely proportional to the kinase activity. The concentration of the compound in the assay ranged from 0.5 nM to 30 μM. The compound was dissolved in 10% DMSO, and 5 μL of the solution was added to 50 μL of the reaction, and the concentration of DMSO in the final reaction was 1%. The reaction was carried out at 30° C. for 50 minutes. 40 mM trishydroxymetyl aminomethane, pH 7.4, 10 mM MgCl2, 0.1 mg/ml BSA, 2 mM DTT, 0.1 mg/ml Poly (Lys, Tyr) substrate, 10 μM ATP and Wee1 were contained in the reaction mixture. After the enzymatic reaction, 50 μL of ATP-Glo Max kinase luminescence detection assay solution (Promega) was added and incubated for 15 minutes at room temperature. The luminescent signal was measured using a microplate reader. In some assays, a known Wee1 inhibitor was added as a positive control. Luminance data was analyzed using Graphpad software.
# Wee1-like protein kinase, sequence (P30291 whole entry): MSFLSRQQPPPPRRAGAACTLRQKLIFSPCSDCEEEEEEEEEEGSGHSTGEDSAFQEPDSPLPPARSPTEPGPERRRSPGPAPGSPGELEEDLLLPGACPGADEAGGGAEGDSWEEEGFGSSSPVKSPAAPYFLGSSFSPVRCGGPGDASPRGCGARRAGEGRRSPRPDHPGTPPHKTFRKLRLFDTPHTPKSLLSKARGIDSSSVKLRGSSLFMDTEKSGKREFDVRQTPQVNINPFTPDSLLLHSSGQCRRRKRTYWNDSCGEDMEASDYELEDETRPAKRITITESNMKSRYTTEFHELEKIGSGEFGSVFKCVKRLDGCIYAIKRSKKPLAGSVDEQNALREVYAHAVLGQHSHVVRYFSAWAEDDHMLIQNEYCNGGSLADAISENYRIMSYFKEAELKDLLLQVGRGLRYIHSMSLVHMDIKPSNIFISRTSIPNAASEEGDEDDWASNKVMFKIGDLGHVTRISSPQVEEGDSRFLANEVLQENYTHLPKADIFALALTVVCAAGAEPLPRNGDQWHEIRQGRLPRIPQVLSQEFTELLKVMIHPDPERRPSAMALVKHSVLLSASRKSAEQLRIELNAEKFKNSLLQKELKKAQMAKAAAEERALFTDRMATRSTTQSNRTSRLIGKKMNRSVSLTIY
row,Compound,pIC50
1,CC(C)N1Cc2cc(Nc3ncc4c(=O)n5n(c4n3)-c3ccc4c(n3)N(CCC/C=C\C5)C(=O)CO4)ccc2C2(CC2)C1,7.98
2,CC(C)N1Cc2ccc(Nc3ncc4c(=O)n5n(c4n3)-c3ccc4c(n3)N(CCC/C=C\C5)C(=O)CO4)cc2C2(CC2)C1,7.99
